Assay results from BindingDB's records for patent US8592379 (Kyoto University, 2013).

Molecular target: KiSS-1 receptor (Homo sapiens, UniProt Q969F8)
Experiment: Binding Assay

Sequence of KiSS-1 receptor (Q969F8 whole entry): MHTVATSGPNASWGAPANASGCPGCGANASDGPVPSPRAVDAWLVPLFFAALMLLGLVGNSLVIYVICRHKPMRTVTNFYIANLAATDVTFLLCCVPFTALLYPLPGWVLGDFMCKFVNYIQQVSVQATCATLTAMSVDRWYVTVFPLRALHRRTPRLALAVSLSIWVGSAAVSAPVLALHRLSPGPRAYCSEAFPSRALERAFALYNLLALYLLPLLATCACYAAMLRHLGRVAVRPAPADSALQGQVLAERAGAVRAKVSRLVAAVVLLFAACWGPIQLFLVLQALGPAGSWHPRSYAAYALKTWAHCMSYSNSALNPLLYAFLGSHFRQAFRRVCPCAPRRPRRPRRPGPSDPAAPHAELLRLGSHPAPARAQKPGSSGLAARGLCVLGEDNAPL

CNC[C@@H](O)CC(CC(C)C)C(C)=O (stereo partly specified) [US8592379, 37]
IC50: 0.24 nM
